For assay [1], the system named is RMAS-HHD-B7.1 target cells. Put plainly: Immunogenicity in HHD mice after immunization with dendritic cells pulsed with peptide pools. The format is in vivo. As to conditions: DCs pulsed with pools of 2-4 peptides; effector-to-target ratio 25:1. As for the experimental part: FIGS. 13A and 13B are graphs showing immunogenicity of PAP- or STEAP-derived peptides in HHD mice. The mice were immunized i.v. one time with 1×10^6 peptide-loaded syngeneic dendritic cells (DCs). The DCs were loaded separately with individual peptides, washed and pooled before immunization. Spleens were removed on day 10, and splenocytes were re-stimulated in vitro by 100 μM PAP-derived (FIG. 13A) or STEAP-derived (FIG. 13B) peptides in OPTIMEM for 2 h at 37° C., 5% CO2, followed by restimulation of lymphocytes for 4 more days in RPMI-HEPES, as described. CTL assays were performed on day 5 with individual PAP-, STEAP-derived peptides loaded on RMAS-HHD-B7.1 as targets. Non-relevant HIV derived peptide-loaded RMAS-HHD-B7.1 cells were used as negative controls. The effector-to-target ratio of 25:1 is shown.
(§1) The immunogenicity of the peptides, namely their potential to induce T cell responses, was subsequently examined in an in vivo model. A strain of β2 microglobulin (β2m) HLA-A2.1 Monochain Transgenic, H-2D^b−/−Xβ2m^−/− double knockout mice (HHD mice) was used. Upon vaccination of these mice, a repertoire of human HLA-A2.1 restricted CTLs is produced. The lysis patterns of each of the individual peptides loaded on target cells were first evaluated following immunization with syngeneic dendritic cells pulsed with pools of 2-4 synthetic peptides derived from each examined protein.

In another assay the test system is EL-4-HHD target cells. The assay can be described thus: Immunogenicity in HHD mice after immunization with single peptide-loaded RMAS-HHD-B7.1 cells. The format is in vivo. As to conditions: single peptide immunization i.p. three times; E:T 100:1 to 12.5:1. As to the method: FIGS. 14A and 14B are graphs showing immunogenicity of PAP-3 (FIG. 14A) and STEAP-3 (FIG. 14B) peptides in HHD mice. Mice immunized i.p. three times at 7-day intervals, with 2×10^6 irradiated (5000 rad) were single peptide-loaded (PAP-3 for FIG. 14A, STEAP-3 for FIG. 14B) TAP-2 deficient RMAS-HHD-B7.1 cells. Spleens were removed on day 10, and splenocytes were restimulated in vitro by 100 μM PAP-3 or STEAP-3 peptides in OPTIMEM for 2 h at 37° C., 5% CO2, followed by restimulation of lymphocytes for 4 more days in RPMI-HEPES, as described. CTL assays were performed on day 5 with PAP-3 or STEAP-3 loaded on EL4-HHD as targets. Unloaded EL4-HHD or non-relevant HIV derived peptide-loaded EL4-HHD cells were used as negative controls. The effector-to-target ratios of 100:1; 50:1; 25:1; 12.5:1 are shown.
as §1

The next assay deals with T2 cells. Put plainly: In vitro priming of human CTL with prostate peptides, cytolytic assay on peptide pulsed T2 cells. The format is cell-based. The conditions noted are these: for existence of peripheral CTL precursors in healthy individuals: peripheral blood of healthy individuals; for activation of CTL precursors in PBMC derived from CaP patients and healthy donors: three healthy and two CaP individuals. As to the method:
FIGS. 16A-16D are graphs showing in vitro priming of human CTLs. PBMC of leukopheresis samples were isolated and in vitro CTL primed with peptide pulsed autologous DC. PBMC were supplemented with IL-7 and two days later IL-2 was added and renewed every three days. Additional two cycles of re-stimulation were done every 7 days over peptide pulsed monocytes. Seven days after the last stimulation cytolytic assay was performed using peptide pulsed or non-pulsed T2 cells as target. In FIG. 16A, PBMC derived from CaP individual (donor A) were primed and re-stimulated with STEAP-3 pulsed DC/monocytes. Target cells: relevant (STEAP-3) and non-relevant peptide (HIV-derived, PAP-3) pulsed T2 cells. In FIG. 16B, PBMC derived from healthy individual (donor B) were primed and restimulated with PAP-3 pulsed DC/monocytes. Target cells: relevant (PAP-3) and non-relevant peptide (HIV-derived, STEAP-3) pulsed T2 cells. PBMC derived from healthy individual (donor C) were primed and restimulated with either PAP-3 (C-1; FIG. 16C) or STEAP-3 (C-2; FIG. 16D) pulsed DC/monocytes. Relevant (PAP-3 or STEAP-3) peptide pulsed and non-pulsed T2 cells were used as targets.
FIGS. 17A-17C are graphs showing peptide specific CTL induced in human PBMC by PAP-3 (FIG. 17A), STEAP-3 (FIG. 17B), and PSGR-1 (FIG. 17C). PBMC from a healthy donor were stimulated by peptide pulsed DC as described and CTL activity was tested on homologous peptide pulsed T2 target cells (HLA-A2 lymphoma, TAP deficient).
Finally, peripheral blood of two healthy (donors B, C) and one CaP (donor A) individuals were tested for the existence of CTL precursors (FIGS. 16A-16D). Leukopheresis products of the donors were obtained from Barzilai Medical Center (Ashkelon, Israel) according to Declaration of Helsinki Principles. PBMC were isolated by centrifugation on Ficoll-Plaque Plus gradients (Amersham, Sweden). In vitro priming of CTL was done over autologous DC that were prepared from monocytes by IL-4 and GM-CSF treatment and maturated with a IL-1β, IL-6, TNF-α and PGE2 cocktail. DC were pulsed with synthetic peptides and PBMC were supplemented with IL-7. Two days later, IL-2 was added and renewed every three days. Two additional re-stimulations were done every 7 days over peptide pulsed monocytes. Seven days after the third stimulation, lymphocytes were harvested and a cytolytic assay was performed using relevant/non-relevant peptide pulsed or non-pulsed at all T2 cells.
When human PBMC are stimulated in vitro by PAP-3 and STEAP-3 peptides, the resulting CTL can lyse target cells (T2, EL4/HHD) pulsed with PAP-3, STEAP-3 or PSGR-1 and PSGR-6 peptides. (FIGS. 15 and 16). Here, these findings were expanded and peripheral blood of three healthy and two CaP individuals was tested for the existence of CTL precursors against PAP-3, STEAP-3 and PSGR-1 peptides. Leukopheresis products of the donors were obtained from Barzilai Medical Center (Ashkelon, Israel) according to Declaration of Helsinki Principles. PBMC were isolated by centrifugation on Ficoll-Plaque Plus gradients (Amersham, Sweden). In vitro priming of CTL was done over autologous DC that were prepared from monocytes by IL-4 and GM-CSF treatment and matured with a IL-1β, IL-6, TNF-α and PGE2 cocktail. DC were pulsed with synthetic peptides and PBMC were supplemented with IL-7. Two days later, IL-2 was added and renewed every three days. Two additional re-stimulations were done every 7 days over peptide pulsed monocytes. Seven days after the third stimulation, lymphocytes were harvested and a cytolytic assay was performed using relevant/non-relevant peptide pulsed or non-pulsed T2 cells (FIGS. 17A-17C) and LNCaP (high and low HLA expressors) cells as targets (FIGS. 18A-18E). […] Monitoring of HLA-A2-peptide specific CD8+ cells for PAP-3 and STEAP-3 was also performed by MHC-peptide tetramers (tetramers of recombinant HLA-A2.1-beta2 microglobulin single chain with peptides were prepared in collaboration with Dr Yoram Reiter, Technion, Haifa). […]

Assay [2] deals with HLA-A2-peptide specific CD8+ cells. The assay can be described thus: MHC-peptide tetramer monitoring of HLA-A2-peptide specific CD8+ cells. The format is cell-based, human. As to conditions: stimulated PBMC, MHC-peptide tetramers.

On to “ILLWQPIPV (listed as Homo sapiens) [PAP-3, PAP start position 135]”, for which the “lysis of peptide-loaded RMAS-HHD-B7.1 target cells” value in assay [1] is listed as “significant lysis”. Further, in the assay with EL-4-HHD target cells, the “lysis of peptide-loaded EL-4-HHD target cells” value was “remarkable and dose-dependent lysis”. Moreover, in the assay with T2 cells, the “existence of peripheral CTL precursors in healthy individuals” value is listed as 2 out of 2; the “activation of CTL precursors in PBMC derived from CaP patients and healthy donors” value was “activated CTL precursors”. The “Levels of HLA-A2-peptide specific CD8+ cells” value in assay [2] is 1.7%.
For “LLLGTIHAL (listed as Homo sapiens) [STEAP-3, STEAP start position 262]”, the “lysis of peptide-loaded RMAS-HHD-B7.1 target cells” value in assay [1] was “significant lysis”. Besides, the “lysis of peptide-loaded EL-4-HHD target cells” value in the assay with EL-4-HHD target cells is “remarkable and dose-dependent lysis”. The “activation of CTL precursors in PBMC derived from CaP individual” value with T2 cells (donor A) was “activated peripheral CTL precursors”. Further, in the assay on T2 cells, the “existence of peripheral CTL precursors in healthy individuals” value is 1 out of 2; the “activation of CTL precursors in PBMC derived from CaP patients and healthy donors” value was “activated CTL precursors”. Besides, in assay [2], the “Levels of HLA-A2-peptide specific CD8+ cells” value was determined as 0.76%.

The values above are taken from US7906620B2, “Tumor associated antigen, peptides thereof, and use of same as anti-tumor vaccines” (Yeda Research and Development Co. Ltd., priority 2002, dated 2011).
